Test results reported in US8574831B2, “Mutational profiles in HIV-1 reverse transcriptase correlated with phenotypic drug resistance” (Virco N.V., priority 2000, dated 2013).

Tested on: HIV with mutations in the HIV protease sequence
Assay: Phenotypic fold resistance to protease inhibitors, protease mutations 84A/84L/84C/54M/54L/54V in a background (Examples 8-13)
Type: cell-based, HIV-1
In short: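 Recombinant-virus phenotyping: patient-derived PR/RT sequences amplified by PCR and recombined in CD4+ T cells into an HXB2 proviral clone deleted for those sequences. Chimeric viruses grown across drug concentrations; IC50 determined, and fold-resistance expressed as IC50 ratio versus wild-type susceptible laboratory HIV-1 tested in parallel.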

CC(C)c1nc(CN(C)C(=O)N[C@H](C(=O)N[C@@H](Cc2ccccc2)C[C@H](O)[C@H](Cc2ccccc2)NC(=O)OCc2cncs2)C(C)C)cs1 [Ritonavir, ritonavir]
Fold change in IC50 (Table 12, V055199, genotype 10I + 33F + 54M + 90M): 18.4 fold | Fold change in IC50 (Table 13, V19263, genotype 77I): 0.4 fold | Fold change in IC50 (Table 13, V20160, genotype WT): 0.6 fold | Fold change in IC50 (Table 13, V021667, genotype 10I): 1.2 fold | Fold change in IC50 (Table 13, V030496, genotype 10I + 77I): 0.5 fold | Fold change in IC50 (Table 13, V048868, genotype 10I + 54L + 71V + 77I + 90M): 9.7 fold | Fold change in IC50 (Table 13, V048874, genotype 10I + 33F + 54L + 71V + 77I + 90M): 21.3 fold | Fold change in IC50 (Table 13, V048875, genotype 10I + 33F + 54L + 71V + 77I + 90M): 25.1 fold | Fold change in IC50 (Table 13, V048877, genotype 10I + 33F + 77I + 90M): 20.5 fold | Fold change in IC50 (Table 13, V048880, genotype 10I + 33F + 77I + 90M): 3.6 fold | Fold change in IC50 (Table 13, V052940, genotype 71V): 0.4 fold | Fold change in IC50 (Table 13, V052942, genotype 10I + 71V): 0.6 fold | Fold change in IC50 (Table 13, V052943, genotype 10I + 90M): 1.8 fold | Fold change in IC50 (Table 13, V052944, genotype 10I + 90M): 1.5 fold | Fold change in IC50 (Table 13, V052945, genotype 77I + 90M): 1.9 fold | Fold change in IC50 (Table 13, V052946, genotype 71V + 90M): 2.0 fold | Fold change in IC50 (Table 13, V052947, genotype 10I + 77I + 90M): 6.9 fold | Fold change in IC50 (Table 13, V052948, genotype 10I + 71V + 90M): 10.5 fold | Fold change in IC50 (Table 13, V052949, genotype 10I + 71V + 77I + 90M): 2.3 fold | Fold change in IC50 (Table 13, V052950, genotype 33F): 1.5 fold | Fold change in IC50 (Table 13, V052951, genotype 33F + 77I): 0.3 fold | Fold change in IC50 (Table 13, V052953, genotype 10I + 33F + 77I): 1.1 fold | Fold change in IC50 (Table 13, V052954, genotype 33F + 77I + 90M): 2.2 fold | Fold change in IC50 (Table 13, V052955, genotype 33F + 71V + 90M): 77.9 fold | Fold change in IC50 (Table 13, V052968, genotype 10L/I + 33F/L + 54L + 77I): 4.7 fold | Fold change in IC50 (Table 13, V052969, genotype 10I + 33F + 54L + 90M): 4.8 fold | Fold change in IC50 (Table 13, V052970, genotype 54L): 2.0 fold | Fold change in IC50 (Table 13, V052971, genotype 10I + 54L): 1.5 fold | Fold change in IC50 (Table 13, V052972, genotype 54L + 77I): 2.4 fold | Fold change in IC50 (Table 13, V052973, genotype 10I + 54L + 77I): 1.4 fold | Fold change in IC50 (Table 13, V052974, genotype 10I + 54L + 90M): 3.6 fold | Fold change in IC50 (Table 13, V052975, genotype 10I + 54L + 71V + 90M): 30.5 fold | Fold change in IC50 (Table 13, V052976, genotype 10I + 54L + 71V + 77I + 90M): 6.5 fold | Fold change in IC50 (Table 13, V053832, genotype 10I + 33F): 2.9 fold | Fold change in IC50 (Table 13, V053854, genotype 54L + 71V): 2.3 fold | Fold change in IC50 (Virco ID 214846, genotype 10I + 33F + 54V + 71V + 77I + 90M, vs mean IC50 of wild type laboratory HIV strain): 57.6 fold | Fold change in IC50 (Virco ID V021667, genotype 10I, vs mean IC50 of wild type laboratory HIV strain): 1.2 fold | Fold change in IC50 (Virco ID V030496, genotype 10I + 77I, vs mean IC50 of wild type laboratory HIV strain): 0.5 fold | Fold change in IC50 (Virco ID V048876, genotype 33F + 54V + 77I + 90M, vs mean IC50 of wild type laboratory HIV strain): 5.6 fold | Fold change in IC50 (Virco ID V048877, genotype 10I + 33F + 77I + 90M, vs mean IC50 of wild type laboratory HIV strain): 20.5 fold | Fold change in IC50 (Virco ID V048880, genotype 10I + 33F + 77I + 90M, vs mean IC50 of wild type laboratory HIV strain): 3.6 fold | Fold change in IC50 (Virco ID V052940, genotype 71V, vs mean IC50 of wild type laboratory HIV strain): 0.4 fold | Fold change in IC50 (Virco ID V052942, genotype 10I + 71V, vs mean IC50 of wild type laboratory HIV strain): 0.6 fold | Fold change in IC50 (Virco ID V052943, genotype 10I + 90M, vs mean IC50 of wild type laboratory HIV strain): 1.8 fold | Fold change in IC50 (Virco ID V052944, genotype 10I + 90M, vs mean IC50 of wild type laboratory HIV strain): 1.5 fold | Fold change in IC50 (Virco ID V052946, genotype 71V + 90M, vs mean IC50 of wild type laboratory HIV strain): 2.0 fold | Fold change in IC50 (Virco ID V052947, genotype 10I + 77I + 90M, vs mean IC50 of wild type laboratory HIV strain): 6.9 fold | Fold change in IC50 (Virco ID V052948, genotype 10I + 71V + 90M, vs mean IC50 of wild type laboratory HIV strain): 10.5 fold | Fold change in IC50 (Virco ID V052949, genotype 10I + 71V + 77I + 90M, vs mean IC50 of wild type laboratory HIV strain): 2.3 fold | Fold change in IC50 (Virco ID V052950, genotype 33F, vs mean IC50 of wild type laboratory HIV strain): 1.5 fold | Fold change in IC50 (Virco ID V052951, genotype 33F + 77I, vs mean IC50 of wild type laboratory HIV strain): 0.3 fold | Fold change in IC50 (Virco ID V052953, genotype 10I + 33F + 77I, vs mean IC50 of wild type laboratory HIV strain): 1.1 fold | Fold change in IC50 (Virco ID V052954, genotype 33F + 77I + 90M, vs mean IC50 of wild type laboratory HIV strain): 2.2 fold | Fold change in IC50 (Virco ID V052955, genotype 33F + 71V + 90M, vs mean IC50 of wild type laboratory HIV strain): 77.9 fold | Fold change in IC50 (Virco ID V052957, genotype 10I + 33F + 54V + 90M, vs mean IC50 of wild type laboratory HIV strain): 13.9 fold | Fold change in IC50 (Virco ID V052958, genotype 10I + 33F + 54V + 77I + 90M, vs mean IC50 of wild type laboratory HIV strain): 16.6 fold | Fold change in IC50 (Virco ID V052959, genotype 10I + 33F + 54V + 77I + 90M, vs mean IC50 of wild type laboratory HIV strain): 28.5 fold | Fold change in IC50 (Virco ID V052960, genotype 10I + 33F + 54V + 71V + 90M, vs mean IC50 of wild type laboratory HIV strain): 70.9 fold | Fold change in IC50 (Virco ID V052961, genotype 54V, vs mean IC50 of wild type laboratory HIV strain): 1.2 fold | Fold change in IC50 (Virco ID V052962, genotype 10I + 54V, vs mean IC50 of wild type laboratory HIV strain): 1.0 fold | Fold change in IC50 (Virco ID V052963, genotype 54V + 77I + 90M, vs mean IC50 of wild type laboratory HIV strain): 2.0 fold | Fold change in IC50 (Virco ID V052964, genotype 54V + 71V + 90M, vs mean IC50 of wild type laboratory HIV strain): 7.1 fold | Fold change in IC50 (Virco ID V052965, genotype 10I + 54V + 77I + 90M, vs mean IC50 of wild type laboratory HIV strain): 12.5 fold | Fold change in IC50 (Virco ID V052966, genotype 10I + 54V + 71V + 90M, vs mean IC50 of wild type laboratory HIV strain): 44.5 fold | Fold change in IC50 (Virco ID V052967, genotype 10I + 54V + 71V + 77I + 90M, vs mean IC50 of wild type laboratory HIV strain): 0.7 fold | Fold change in IC50 (Virco ID V053358, genotype 33F + 54V + 77I + 90M, vs mean IC50 of wild type laboratory HIV strain): 4.9 fold | Fold change in IC50 (Virco ID V053831, genotype 33F + 54V, vs mean IC50 of wild type laboratory HIV strain): 129.7 fold | Fold change in IC50 (Virco ID V053832, genotype 10I + 33F, vs mean IC50 of wild type laboratory HIV strain): 2.9 fold
